Article PMC4841536, “Characterization of the Anti-HCV Activities of the New Cyclophilin Inhibitor STG-175” (PLoS ONE, 2016)
Values joined by “and” are separate entries in the source; they are usually repeats but may differ in a detail not shown here. Equal entries are not always repeated. Where two headings read alike, the source gives them in different places.

Columns and labels:
[1] = tested on: IL-2 promoter activation in Jurkat T-cell line; assay: In vitro assay for immunosuppression: IL-2 promoter activation in engineered Jurkat T-cell line (betagalactosidase); format: cell-based; conditions: Homo sapiens; Jurkat cells activated with PMA 10 ng/mL, 24 h; read-out: IC50, inhibition of IL-2 production (immunosuppressive activity)
Method: IL-2 promoter activation upon T-cell stimulation was determined using an engineered Jurkat T-cell line, which expresses betagalactosidase when exposed to chemical non-specific factors like […] (PMA) and phytohematogglutinin (PHA) as described previously. DMSO or STG-175 were added together with PMA (10 ng/mL) to 1 million of Jurkat cells (triplicates). Betagalactosidase activity in cell lysates was quantified by fluorescence (460 nm) after 24 h.
(§1) Fig 1 Anti-PPIase and immunosuppressive activities of STG-175. A. Structures of cyclophilin inhibitors. Inhibition of CypA (B) and CypD (C) isomerase activities were assessed using the α-chymotrypsin-coupled assay. Each test compound was prepared at 10 concentrations (0.05–1000 nM). All solutions were equilibrated, and reactions conducted at 5°C. Reactions were initiated by mixing 95 μL reaction mix with 5 μL of the peptide to be cleaved and measuring OD405 nm at 6-sec intervals for 6 min. Data were fitted with Graphpad Prism 6.0 to obtain first-order rate constants. Enzyme catalyzed rate constants were calculated by subtracting the rate constant from uncatalyzed reactions (no CypA/D), and catalytic rate constants plotted as a function of inhibitor concentration to obtain IC50s. […] D. IL-2 promoter activation upon T-cell stimulation was determined using an engineered Jurkat T-cell line, which expresses betagalactosidase. Jurkat cells (1 million) were activated with PMA (10 ng/mL). […] The Y-axis values are expressed as percentage of activity. Data expressed as EC50s are representative of two independent experiments.
The formation of this trimolecular complex inhibits T cell proliferation by blocking the signaling pathway leading to IL-2 production upon T-cell stimulation. The immunosuppressive activity of STG-175 was evaluated by inhibition of the IL-2 production in Jurkat cells.

Human recombinant CypD = target: T1, Human recombinant CypD (Homo sapiens, UniProt P30405); assay: α-chymotrypsin-coupled PPIase assay, CypD isomerase activity; format: biochemical; conditions: 5°C, 10 concentrations 0.05–1000 nM
T1 construct: purchased Atgen
Method: (§2) Inhibition of CypA and CypD isomerase activities were quantified using a α-chymotrypsin-coupled assay adapted to a 96-well plate format. Human recombinant CypA or CypD (Atgen) was dissolved to 10 nM in PPIases buffer (50 mM Hepes, 100 mM NaCl, 1 mg/ml bovine serum albumin, 1 mg/ml α-chymotrypsin; pH 8). Succinyl-AAPF-pNA peptide substrate (Sigma) was dissolved to 3.2 mM in LiCl/trifluoroethanol. Each CypI was prepared at 10 concentrations in DMSO, then diluted into CypA/D PPIase buffer to 0.05–1000 nM. Incubations were performed at 5°C. Ninety five μL of reaction mix was added to 5 μL peptide in 96-wells and OD405 nm measured at 6-sec intervals for 6 min using a Biotek Synergy H4 plate reader. Data were fitted with Graphpad Prism 6.0 to acquire first-order rate constants, which were calculated by subtracting the rate constant from uncatalyzed reactions (no CypA/D). The catalytic rate constants were plotted as a function of inhibitor concentration to obtain IC50s.
(§3) The inhibition of the isomerase activities of CypA and CypD were measured with 10 increasing concentrations of STG-175 to quantify IC50 values.
as §1, with “Data were fitted with Graphpad Prism 6.0 to obtain first-order rate constants.” left out, “betagalactosidase.” for “betagalactosidase. Jurkat cells (1 million) were activated with PMA (10 ng/mL).”

[2] = tested on: wild-type Con1 GT1b replicon; assay: Electroporated Con1 RNA replication in Huh7.5.1 cells (RT-qPCR), wild-type; format: cell-based; conditions: Hepatitis C virus
Text: (§4) The GT1b subgenomic firefly luciferase reporter replicon pFK-I389/NS3–3 was provided by R. Bartenschlager. The GT1B subgenomic NS3, NS5A and NS5B mutants were created via homologous recombination using the In-Fusion HD Cloning kit (Clontech) as we described previously. […] The in vitro transcription of wild-type and mutant Con1 RNA was accomplished using the T7 MEGAscript kit (Ambion) by following the manufacturer’s instructions. In vitro-transcribed RNAs were introduced into Huh7.5.1 cells by electroporation. Trypsinized cells were washed twice and resuspended in phosphate-buffered saline (PBS) (calcium-free and magnesium-free) at 1x 10^7 cells per ml. Ten micrograms of RNA for each mutant was mixed with 0.4 mL of cells in a 4-mm cuvette, and a Bio-Rad Gene Pulser system was used to deliver a single pulse at 0.27 kV, 100 ohms, and 960 μF. Cells were then plated in 12-well dishes. RNA transfection efficiency and HCV subgenomic replication were assessed by reverse transcription-quantitative PCR (RT-qPCR) and presented as genome equivalents (GE) per microgram of total RNA as described previously. We measured by RT-qPCR the replication of wild-type, STG-175-, NS5Ai-, NS3i- and NS5Bi-resistant mutants in the presence of increasing concentrations of SGT-175, daclatasvir, telaprevir, boceprevir and sofosbuvir over a period of 8 days.
(§5) Fig 3 Replicon clearance, replication rebound and resistance analyses. […] Then drugs were removed to allow viral replication rebound to occur. At each passage, samples of cells were collected, RNA extracted and analyzed by RT-PCR for HCV RNA levels. B. Emergence of resistance: Con1 replicon Huh-7 cells were passaged 22 times in the absence or presence of STG-175 or selected DAAs. At each passage, sample of cells were collected, RNA extracted and analyzed by RT-PCR for HCV RNA levels. C. […] Data are expressed as number of HCV RNA copies per cell. […] Data are expressed as mean of relative light units and calculated EC50s are presented. […] E. Degree of resistance of D320E and Y321N Con1 variants: Left panel. Wild-type (WT), D320E and D320/Y321N NS5A Con1 RNA were electroporated into Huh7.5.1 cells and replication monitored over 8 days by quantifying the levels of intracellular HCV RNA. Right panel. Same as just above except that increasing concentrations of STG-175 were added at the time of the electroporation. […] STG-175 is taken as the substance from the printed x-axis title 'STG-175 in Log nM'.
To determine whether the D320E and Y321N substitutions truly render HCV resistant to STG-175, they were introduced into wild-type Con1 replicon as we described previously. Introduction of the substitutions was verified by sequencing. In vitro-transcribed wild-type, D320E and D320E/Y321N HCV RNAs were then electroporated into Huh7.5.1 cells and viral replication assessed by RT-qPCR and presented as GE per microgram of total RNA as we described previously. […] We then analyzed the replication of wild-type, D320E and D320E/Y321N in the presence of increasing concentrations of SGT-175 over a period of 8 days.
Fig 5 Cross-resistance analyses.

[3] = tested on: D320E NS5A Con1 GT1b replicon; assay: microbe, parasite or virus in culture; format: cell-based, hepatitis C virus; conditions: Hepatitis C virus, GT1B
Text: as §4
(§6) D320E and D320E/Y321N NS5A substitutions were introduced into wild-type Con1 GT1 replicon as we described previously. Con1-NS5A-D320E, and Con1-NS5A-D320E/Y321N were generated using the following forward and reverse phosphorylated (p) primer sets, respectively: (p)[…] and (p)[…], and (p)[…] and (p)[…]. PCR products were circularized with Quick T4 DNA ligase (NEB) for 5 min and transformed into NEB 10-beta competent cells. The NS5A gene was sequenced to confirm the introduced substitutions.
as §5
(§7) To determine whether the D320E and Y321N substitutions truly render HCV resistant to STG-175, they were introduced into wild-type Con1 replicon as we described previously. Introduction of the substitutions was verified by sequencing.

[4] = tested on: D320E/Y321N NS5A Con1 GT1b replicon; assay: microbe, parasite or virus in culture; format: cell-based, hepatitis C virus; conditions: Hepatitis C virus, GT1B
Text: as §4, §6, §5, §7

[5] = tested on: subgenomic Con1 (GT1b) replicon in Huh-7 cells; format: cell-based, hepatitis C virus; conditions: for passages until development of HCV resistance, DAA alone ("instead of" comparison): compared with combination; for passage at which resistant variants emerged (CypI comparison): Fig 3C
Method: Huh-7 cell expressing subgenomic Con1 (GT1b) replicon were seeded in a 10 cm dish at a density of 3 × 10^5 cells per culture flask in complete DMEM (with G418) with STG-175 or selected drugs. Cells were grown until they reached 90% confluence, trypsinized and re-seeded at the same cell concentration in a new 10-cm dish with the same drug concentration. Cells were passaged 22 times in the presence of drugs. At each passage, sample of cells were collected, RNA extracted according to the manufacturer's instructions and analyzed by RT-PCR for HCV RNA levels.
as §5
We then examined the development of resistance to STG-175. GT1b Con1 sub-genomic replicon cells were grown in the presence of STG-175 (0.25 and 1 μM), telaprevir (2.5 and 10 μM), boceprevir (2.5 and 10 μM), daclatasvir 100 pM and 1 nM) or a combination of STG-175 (0.25 μM) with either telaprevir (2.5 μM), boceprevir (2.5 μM) or daclatasvir (100 pM) for 22 successive passages. At each passage, fresh drug was added and a sample of cells was taken to quantify HCV RNA levels by RT-qPCR.

Human recombinant CypA = target: T2, Human recombinant CypA (Homo sapiens, UniProt P62937); assay: α-chymotrypsin-coupled PPIase assay, CypA isomerase activity; format: biochemical; conditions: 5°C, 10 concentrations 0.05–1000 nM; read-out: IC50, neutralization of the isomerase activity of CypA
T2 construct: purchased Atgen
Method: as §2, with “The catalytic rate constants were plotted as a function of inhibitor concentration to obtain IC50s.” left out
as §3
Fig 1 Anti-PPIase and immunosuppressive activities of STG-175. […] Inhibition of CypA (B) and CypD (C) isomerase activities were assessed using the α-chymotrypsin-coupled assay. […] D. IL-2 promoter activation upon T-cell stimulation was determined using an engineered Jurkat T-cell line, which expresses betagalactosidase. […] The Y-axis values are expressed as percentage of activity. […]

[6] = tested on: HCV GT4a subgenomic replicon ED43/SG-Feo; parameters: method as in PMID 24687498; conditions: cited from earlier work
[7] = Huh-7.5.1, 192 h, read-out: EC50 GT1b WT
[8] = Huh-7.5.1, 192 h, read-out: EC50 D320E NS5A
[9] = Huh-7.5.1, 192 h, read-out: EC50 D320E/Y321N NS5A

T1 sequence (P30405 30-207): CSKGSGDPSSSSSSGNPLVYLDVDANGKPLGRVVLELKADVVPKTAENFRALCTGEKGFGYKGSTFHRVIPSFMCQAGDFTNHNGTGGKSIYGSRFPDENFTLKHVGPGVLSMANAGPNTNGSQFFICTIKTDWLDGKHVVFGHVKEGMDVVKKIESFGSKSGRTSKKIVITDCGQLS
T2 sequence (P62937 whole entry): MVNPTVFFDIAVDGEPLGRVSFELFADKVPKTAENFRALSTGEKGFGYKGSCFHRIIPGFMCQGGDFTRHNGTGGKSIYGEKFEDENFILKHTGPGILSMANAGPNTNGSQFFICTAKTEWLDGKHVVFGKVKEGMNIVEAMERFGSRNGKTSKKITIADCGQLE

C/C=C/C[C@@H](C)[C@@H](O)[C@H]1C(=O)N[C@@H](CC)C(=O)N(C)[C@H](SCCN(C)C)C(=O)N(C)[C@@H](CC(C)(C)O)C(=O)N[C@@H](C(C)C)C(=O)N(C)[C@@H](CC(C)C)C(=O)N[C@@H](C)C(=O)N[C@H](C)C(=O)N(C)[C@@H](CC(C)C)C(=O)N(C)[C@@H](CC(C)C)C(=O)N(C)[C@@H](C(C)C)C(=O)N1C [SCY-635]
IC50 [1]: 38.6 nM
IC50 (Human recombinant CypD; IC50, neutralization of the isomerase activity of CypD): 7.1 nM and 7.2 nM

COC(=O)N[C@H](C(=O)N1CCC[C@H]1c1nc(-c2ccc(-c3ccc(-c4c[nH]c([C@@H]5CCCN5C(=O)[C@@H](NC(=O)OC)C(C)C)n4)cc3)cc2)c[nH]1)C(C)C [daclatasvir]
EC50 ([2]; Huh-7.5.1, read-out: EC50 wild-type replicon): 0.043 nM
EC50 ([3]; Huh-7.5.1, read-out: EC50 D320E replicon): 0.032 nM
EC50 ([4]; Huh-7.5.1, read-out: EC50 D320E/Y321N replicon): 0.039 nM
passage at which resistance began ([5]; 100 pM): 4 passage
passage at which resistance began ([5]; 1 nM): 5 passage
passages until development of HCV resistance, DAA alone ("instead of" comparison) [5]: 4 passages

C/C=C/C[C@@H](C)[C@@H](O)[C@H]1C(=O)N[C@@H](CC)C(=O)N(C)[C@H](C)C(=O)N(CC)[C@@H](C(C)C)C(=O)N[C@@H](C(C)C)C(=O)N(C)[C@@H](CC(C)C)C(=O)N[C@@H](C)C(=O)N[C@H](C)C(=O)N(C)[C@@H](CC(C)C)C(=O)N(C)[C@@H](CC(C)C)C(=O)N(C)[C@@H](C(C)C)C(=O)N1C [ALV, alisporivir]
IC50 [1]: 85.7 nM
IC50 (Human recombinant CypA): 1.7 nM
passage at which resistant variants emerged (CypI comparison) ([5]; 0.25 μM of drug selection): 15 passage
passage at which resistance began ([5]; 1 μM drug pressure, first account (Fig 3B)): 16 passage
passage at which resistant variants emerged (CypI comparison) ([5]; 1 μM of drug selection): 17 passage
IC50 (Human recombinant CypD; read-out: IC50, neutralization of the isomerase activity of CypD): 3.4 nM

CCC[C@H](NC(=O)[C@@H]1[C@H]2CCC[C@H]2CN1C(=O)[C@@H](NC(=O)[C@@H](NC(=O)c1cnccn1)C1CCCCC1)C(C)(C)C)C(=O)C(=O)NC1CC1 [telaprevir]
EC50 [2, 7]: 290 nM
EC50 [3, 8]: 230 nM
EC50 [4, 9]: 314 nM
passage at which resistance began ([5]; 2.5 μM): 7 passage
passage at which resistance began ([5]; 10 μM): 10 passage
passages until development of HCV resistance, DAA alone ("instead of" comparison) [5]: 6 passages

CC(C)OC(=O)[C@H](C)N[P@](=O)(OC[C@H]1O[C@@H](n2ccc(=O)[nH]c2=O)[C@](C)(F)[C@@H]1O)Oc1ccccc1 [sofosbuvir, reference compound]
EC50 [2, 7]: 177 nM
EC50 [3, 8]: 120 nM
EC50 [4, 9]: 111 nM

CC(C)(C)NC(=O)N[C@H](C(=O)N1C[C@H]2[C@@H]([C@H]1C(=O)NC(CC1CCC1)C(=O)C(N)=O)C2(C)C)C(C)(C)C (stereo partly drawn) [boceprevir]
EC50 [2, 7]: 138 nM
EC50 [3, 8]: 92.7 nM
EC50 [4, 9]: 129 nM
activity against GT4a [6]: inactive
passage at which resistance began ([5]; 2.5 μM): 7 passage
passage at which resistance began ([5]; 10 μM): 10 passage
passages until development of HCV resistance, DAA alone ("instead of" comparison) [5]: 7 passages
